Test results as given in US20250353855A1, “HETEROCYCLIC AND HETEROARYL COMPOUNDS FOR TREATING HUNTINGTON'S DISEASE” (PTC THERAPEUTICS, INC., priority 2022, published 2025).
Like-named read-outs stand apart in the source and are kept apart here.

System: Endogenous Huntingtin Protein
Assay: Endogenous Huntingtin Protein Assay (ELISA-based MSD electrochemiluminescence)
Type: cell-based
Settings: MSD plates coated with MW1 (expanded polyglutamine) or MAB2166 capture antibody, lysates
Description: Compounds of Formula (T) were tested using the Meso Scale Discovery (MSD) Assay provided in International Application No. PCT/US2016/066042, filed on Dec. 11, 2016 and claiming priority to U.S. Provisional Application 62/265,652 filed on Dec. 10, 2015, the entire contents of which are incorporated herein by reference.
The Endogenous Huntingtin Protein assay used in Example 1 was developed using the ELISA-based MSD electrochemiluminescence assay platform.
Meso Scale Discovery (MSD) 96-well or 384-well plates were coated overnight at 4° C. with MW1 (expanded polyglutamine) or MAB2166 monoclonal antibody (for capture) at a concentration of 1 μg/mL in PBS (30 μL per well). Plates were then washed three times with 300 μL wash buffer (0.05% Tween-20 in PBS) and blocked (100 μL blocking buffer; 5% BSA in PBS) for 4-5 hours at room temperature with rotational shaking and then washed three times with wash buffer.
Samples (25 μL) were transferred to the antibody-coated MSD plate and incubated overnight at 4° C. After removal of the lysates, the plate was washed three times with wash buffer, and 25 μL of #5656S (Cell signaling; rabbit monoclonal) secondary antibody (diluted to 0.25 μg/mL in 0.05% Tween-20 in blocking buffer) was added to each well and incubated with shaking for 1 Hour at room temperature. Following incubation with the secondary antibody, the wells were rinsed with wash buffer after which 25 μL of goat anti-rabbit SULFO TAG secondary detection antibody (required aspect of the MSD system) (diluted to 0.25 μg/mL in 0.05% Tween-20 in blocking buffer) was added to each well and incubated with shaking for 1 hour at room temperature. After rinsing three times with wash buffer, 150 μL of read buffer T with surfactant (MSD) were added to each empty well, and the plate was imaged on a SI 6000 imager (MSD) according to manufacturers' instructions provided for 96- or 384-well plates.

IC50 (read-out: IC50) [nM] | SMILES | IC50 [nM]
< 100 | Cn1c(=O)cnc2cc(-c3cc4ccn([C@H]5CC(C)(C)NC(C)(C)[C@H]5F)c4nn3)c(O)cc21 [Cpd 26, 6-{7-[(3S,4S)-3-fluoro-2,2,6,6-tetramethylpiperidin-4-yl]-7H-pyrrolo[2,3-c]pyridazin-3-yl}-7-hydroxy-1-methylquinoxalin-2(1H)-one] | –
< 100 | CC1(C)C[C@H](n2ccc3cc(-c4cc5ccccc5cc4O)nnc32)[C@H](F)C(C)(C)N1 [Cpd 28, 3-{7-[(3S,4S)-3-fluoro-2,2,6,6-tetramethylpiperidin-4-yl]-7H-pyrrolo[2,3-c]pyridazin-3-yl}naphthalen-2-ol] | –
– | CC1(C)C[C@H](N2CCc3cc(-c4cc5ncccc5cc4O)nnc32)[C@H](F)C(C)(C)N1 [Cpd 80, 7-{7-[(3S,4S)-3-fluoro-2,2,6,6-tetramethylpiperidin-4-yl]-6,7-dihydro-5H-pyrrolo[2,3-c]pyridazin-3-yl}quinolin-6-ol] | < 100
< 100 | Cc1nc2cc(O)c(-c3cc4c(nn3)N([C@H]3CC(C)(C)NC(C)(C)[C@H]3F)CC4)cc2s1 [Cpd 52, 6-{7-[(3S,4S)-3-fluoro-2,2,6,6-tetramethylpiperidin-4-yl]-6,7-dihydro-5H-pyrrolo[2,3-c]pyridazin-3-yl}-2-methyl-1,3-benzothiazol-5-ol] | –
100 to 500 | Cc1nc2cc(-c3cc4ncn([C@H]5CC(C)(C)NC6(CC6)C5)c4nn3)c(O)cc2o1 [Cpd 23, 5-{7-[(7S)-5,5-dimethyl-4-azaspiro[2.5]octan-7-yl]-7H-imidazo[4,5-c]pyridazin-3-yl}-2-methyl-1,3-benzoxazol-6-ol] | –
< 100 | Cc1nc2cc(O)c(-c3cc4c(nn3)N([C@H]3CC(C)(C)NC(C)(C)[C@H]3F)CC4)cc2nc1C [Cpd 51, 7-{7-[(3S,4S)-3-fluoro-2,2,6,6-tetramethylpiperidin-4-yl]-6,7-dihydro-5H-pyrrolo[2,3-c]pyridazin-3-yl}-2,3-dimethylquinoxalin-6-ol] | –
< 100 | Cc1nc2cc(O)c(-c3cc4c(nn3)N([C@@H]3CC(C)(C)NC5(CC5)C3)CC4)cc2o1 [Cpd 95, 6-{7-[(7R)-5,5-dimethyl-4-azaspiro[2.5]octan-7-yl]-6,7-dihydro-5H-pyrrolo[2,3-c]pyridazin-3-yl}-2-methyl-1,3-benzoxazol-5-ol] | –
< 100 | Cc1cnc2cc(-c3cc4ccn([C@H]5CC(C)(C)NC(C)(C)[C@H]5F)c4nn3)c(O)cc2n1 [Cpd 5, 7-{7-[(3S,4S)-3-fluoro-2,2,6,6-tetramethylpiperidin-4-yl]-7H-pyrrolo[2,3-c]pyridazin-3-yl}-3-methylquinoxalin-6-ol] | –
< 100 | CC1(C)C[C@H](N2CCc3cc(-c4cc5cccnc5cc4O)nnc32)[C@H](F)C(C)(C)N1 [Cpd 53, 6-{7-[(3S,4S)-3-fluoro-2,2,6,6-tetramethylpiperidin-4-yl]-6,7-dihydro-5H-pyrrolo[2,3-c]pyridazin-3-yl}quinolin-7-ol] | –
< 100 | CC1(C)C[C@H](n2ccc3cc(-c4cc5oc(=O)[nH]c5cc4O)nnc32)[C@H](F)C(C)(C)N1 [Cpd 36, 6-{7-[(3S,4S)-3-fluoro-2,2,6,6-tetramethylpiperidin-4-yl]-7H-pyrrolo[2,3-c]pyridazin-3-yl}-5-hydroxy-1,3-benzoxazol-2(3H)-one] | –
< 100 | Cc1nc2cc(O)c(-c3cc4c(nn3)N(C3CC5(CC5)NC5(CC5)C3)CC4)cc2o1 (stereo not drawn) [Cpd 72, 6-[7-(4-azadispiro[2.1.25.33]decan-9-yl)-6,7-dihydro-5H-pyrrolo[2,3-c]pyridazin-3-yl]-2-methyl-1,3-benzoxazol-5-ol] | –
< 100 | CC1(C)C[C@H](n2ccc3cc(-c4cc5ccncc5cc4O)nnc32)[C@H](F)C(C)(C)N1 [Cpd 29, 6-{7-[(3S,4S)-3-fluoro-2,2,6,6-tetramethylpiperidin-4-yl]-7H-pyrrolo[2,3-c]pyridazin-3-yl}isoquinolin-7-ol] | –
< 100 | Cc1cnc2cc(-c3cc4c(nn3)N([C@H]3CC(C)(C)NC(C)(C)[C@H]3F)CC4)c(O)cc2n1 [Cpd 56, 7-{7-[(3S,4S)-3-fluoro-2,2,6,6-tetramethylpiperidin-4-yl]-6,7-dihydro-5H-pyrrolo[2,3-c]pyridazin-3-yl}-3-methylquinoxalin-6-ol] | –
< 100 | COc1cc(=O)oc2cc(O)c(-c3cc4c(nn3)N([C@H]3CC(C)(C)NC(C)(C)[C@H]3F)CC4)cc12 [Cpd 78, 6-{7-[(3S,4S)-3-fluoro-2,2,6,6-tetramethylpiperidin-4-yl]-6,7-dihydro-5H-pyrrolo[2,3-c]pyridazin-3-yl}-7-hydroxy-4-methoxy-2H-1-benzopyran-2-one] | –
< 100 | Cn1cc2cc(-c3cc4ccn([C@H]5CC(C)(C)NC(C)(C)[C@H]5F)c4nn3)c(O)c(F)c2n1 [Cpd 100, 7-fluoro-5-{7-[(3S,4S)-3-fluoro-2,2,6,6-tetramethylpiperidin-4-yl]-7H-pyrrolo[2,3-c]pyridazin-3-yl}-2-methyl-2H-indazol-6-ol] | –
< 100 | CC1(C)C[C@H](N2CCc3cc(-c4cc5ncc(F)cc5cc4O)nnc32)[C@H](F)C(C)(C)N1 [Cpd 90, 3-fluoro-7-{7-[(3S,4S)-3-fluoro-2,2,6,6-tetramethylpiperidin-4-yl]-6,7-dihydro-5H-pyrrolo[2,3-c]pyridazin-3-yl}quinolin-6-ol] | –
< 100 | CC1(C)C[C@H](N2CCc3cc(-c4cc5occc(=O)c5cc4O)nnc32)[C@H](F)C(C)(C)N1 [Cpd 82, 7-{7-[(3S,4S)-3-fluoro-2,2,6,6-tetramethylpiperidin-4-yl]-6,7-dihydro-5H-pyrrolo[2,3-c]pyridazin-3-yl}-6-hydroxy-4H-1-benzopyran-4-one] | –
< 100 | Cc1ncc2cc(O)c(-c3cc4ccn([C@H]5CC(C)(C)NC(C)(C)[C@H]5F)c4nn3)cc2n1 [Cpd 39, 7-{7-[(3S,4S)-3-fluoro-2,2,6,6-tetramethylpiperidin-4-yl]-7H-pyrrolo[2,3-c]pyridazin-3-yl}-2-methylquinazolin-6-ol] | –
< 100 | Cn1nnc2cc(O)c(-c3cc4ccn([C@H]5CC(C)(C)NC(C)(C)[C@H]5F)c4nn3)cc21 [Cpd 42, 6-{7-[(3S,4S)-3-fluoro-2,2,6,6-tetramethylpiperidin-4-yl]-7H-pyrrolo[2,3-c]pyridazin-3-yl}-1-methyl-1H-benzotriazol-5-ol] | –
< 100 | O=c1ccc2cc(-c3cc4c(nn3)N([C@H]3CCNC5(CC5)C3)CC4)c(O)cc2o1 [Cpd 59, 6-{7-[(7S)-4-azaspiro[2.5]octan-7-yl]-6,7-dihydro-5H-pyrrolo[2,3-c]pyridazin-3-yl}-7-hydroxy-2H-1-benzopyran-2-one] | –
< 100 | Cn1nc2cc(O)c(-c3cc4c(nn3)N([C@H]3CC(C)(C)NC(C)(C)[C@H]3F)CC4)cc2n1 [Cpd 88, 6-{7-[(3S,4S)-3-fluoro-2,2,6,6-tetramethylpiperidin-4-yl]-6,7-dihydro-5H-pyrrolo[2,3-c]pyridazin-3-yl}-2-methyl-2H-benzotriazol-5-ol] | –
100 to 500 | O=C1CCc2cc(-c3cc4c(nn3)N([C@H]3CCNC5(CC5)C3)CC4)c(O)cc21 [Cpd 57, 5-{7-[(7S)-4-azaspiro[2.5]octan-7-yl]-6,7-dihydro-5H-pyrrolo[2,3-c]pyridazin-3-yl}-6-hydroxy-2,3-dihydro-1H-inden-1-one] | –
< 100 | Cn1cc2cc(O)c(-c3cc4c(nn3)N([C@H]3CC(C)(C)NC(C)(C)[C@H]3F)CC4)cc2n1 [Cpd 89, 6-{7-[(3S,4S)-3-fluoro-2,2,6,6-tetramethylpiperidin-4-yl]-6,7-dihydro-5H-pyrrolo[2,3-c]pyridazin-3-yl}-2-methyl-2H-indazol-5-ol] | –
< 100 | CC1(C)C[C@H](N2CCc3cc(-c4cc5c(=O)ccoc5cc4O)nnc32)[C@H](F)C(C)(C)N1 [Cpd 69, 6-{7-[(3S,4S)-3-fluoro-2,2,6,6-tetramethylpiperidin-4-yl]-6,7-dihydro-5H-pyrrolo[2,3-c]pyridazin-3-yl}-7-hydroxy-4H-1-benzopyran-4-one] | –
500 to 1000 | Cn1nnc2cc(-c3cc4nnn(C5CC(C)(C)NC6(CC6)C5)c4nn3)c(O)cc21 (racemic) [Cpd 7, 5-[rac-3-(5,5-dimethyl-4-azaspiro[2.5]octan-7-yl)-3H-[1,2,3]triazolo[4,5-c]pyridazin-6-yl]-1-methyl-1H-benzotriazol-6-ol] | –
< 100 | Oc1cc2nccnc2cc1-c1cc2c(nn1)N([C@H]1CCNC3(CC3)C1)CC2 [Cpd 49, 7-{7-[(7S)-4-azaspiro[2.5]octan-7-yl]-6,7-dihydro-5H-pyrrolo[2,3-c]pyridazin-3-yl}quinoxalin-6-ol] | –

SMILES | IC50 (read-out: IC50) [nM] | IC50 [nM]
Cc1nc2cc(O)c(-c3cc4ccn([C@@H]5C[C@H]6CC[C@H](N6)[C@@H]5F)c4nn3)cc2s1 (single isomer, unassigned) [Cpd 22, 6-{7-[(1S,2S,3R,5R)-2-fluoro-8-azabicyclo[3.2.1]octan-3-yl]-7H-pyrrolo[2,3-c]pyridazin-3-yl}-2-methyl-1,3-benzothiazol-5-ol or 6-{7-[(1R,2R,3S,5S)-2-fluoro-8-azabicyclo[3.2.1]octan-3-yl]-7H-pyrrolo[2,3-c]pyridazin-3-yl}-2-methyl-1,3-benzothiazol-5-ol] | < 100 | –
